Measured values from patent publication US20090232771A1, “Method of controlling cell functions” (Takeda Pharmaceutical Company Limited, priority 2004, published 2009).

B1: oncostatin M (protein, UniProt P13725 26-221, looked up)
Oncostatin-M: AAIGSCSKEYRVLLGQLQKQTDLMQDTSRLLDPYIRIQGLDVPKLREHCRERPGAFPSEETLRGLGRRGFLQTLNATLGCVLHRLADLEQRLPKAQDLERSGLNIEDLEKLQMARPNILGLRNNIYCMAQLLDNSDTAEPTKAGRGASQPPTPTPASDAFQRKLEGCRFLHGYHRFMHSVGRVFSKWGESPNRSRR
notes: differentiation induction factor for osteoblasts from human mesenchymal stem cells in serum-free medium

What was measured:
[1] = tested on: human mesenchymal stem cells; assay: Differentiation of human mesenchymal stem cells into adipocytes, Oil Red O staining of accumulated intracellular lipids; format: cell-based; conditions: cholecystokinin 100 nM in differentiation induction medium; compared to cholecystokinin-free control; FIG. 1
Procedure: Human mesenchymal stem cells were incubated in a 24-well culture plate until the cells became confluent. Then, the medium was exchanged with a differentiation induction medium prepared by adding cholecystokinin (100 nM) to high-glucose DMEM medium supplemented with insulin, dexamethasone, isobutylmethylxanthine, indomethacin, antibiotic and 10% fetal bovine serum, and incubation was continued for 3 days. For control, a cholecystokinin-free differentiation induction medium was used. After incubation was conducted for 3 days in a high-glucose DMEM medium (adipocyte maintenance medium) supplemented only with insulin, antibiotic and 10% fetal bovine serum, the same treatments (the induction and the maintenance, respectively, for 3 days) were repeated. Accumulated intracellular lipids were visualized by staining with Oil Red 0 dye.

[2] = tested on: human mesenchymal stem cells; assay: Osteoblast differentiation induction from human mesenchymal stem cells, accumulated calcium level per well (Calcium C-Test); format: cell-based; conditions: oncostatin M added (10 ng/ml); irrespective of presence or absence of FBS; compared to 10% FBS-containing differentiation medium without oncostatin M; FIG. 2
Procedure: Human mesenchymal stem cells were purchased from Cambrex, Inc. Dulbecco's Modified Eagle Medium (DMEM, Invitrogen) containing 1.0 g/l of glucose and supplemented with 10% fetal bovine serum (Stem Cell Technologies), 2 mM L-glutamine (Invitrogen), 100 U/ml penicillin and 100 μg/ml streptomycin was used as a maintenance medium. The maintenance medium supplemented with 0.1 μM dexamethasone, 0.05 mM ascorbic acid and 10 mM β-glycerophosphate (=10% FBS-containing differentiation medium) or fetal bovine serum-free maintenance medium supplemented with the three components above was used as a differentiation medium (=serum-free differentiation medium). […] Subsequently, the medium was exchanged every 4 days, and the accumulated calcium level per well was quantified on day 10 of the incubation (Calcium C-Test, Wako Pure Chemical).

Molecule	lipid accumulation (accumulated intracellular lipids, Oil Red O staining) compared to control [1]	accumulation of calcium per well on day 10 of the incubation [2]
cholecystokinin (DYMGWMDF) [ligand of the cholecystokinin receptor]	lipid accumulation is enhanced	–
B1	–	marked accumulation of calcium was observed
